Source: patent publication US4870002A, “Method of prevention of oxidative injury to cells” (priority 1985, dated 1989)
Entries after “also recorded” stand apart in the source; their conditions may differ.

Tested on: pig RBCs
Experiment: Thermal fragility / hemolysis of RBCs (410 nm absorbance of supernatant)
Type: cell-based
Protocol: Blood was collected from Landrace-Duroc swine from a closed herd. Pigs from this herd had previously expressed episodes of porcine stress syndrome (malignant hyperthermia) following halothane anesthesia. The blood was collected into acidic citrated dextrose solution in standard blood bags. The blood was diluted 1:10 in phosphate (0.1M) buffered saline (PBS), pH 7.4, in 10 ml aliquots, centrifuged in a clinical centrifuge, and the erythrocytes were resuspended in fresh PBS. The cells were stored at 4° C. until used in the various assays. The post-collection chronological age of the RBCs used for a particular assay is noted in the results for each assay. The cells were counted in an automated cell counter (Coulter ZBI, Coulter Electronics, Inc., Hialeah, Fla. 33010).
Red blood cells were heated in 1 or 1.5 ml aliquots of PBS pH 7.4 with or without additional reagents in cellulose nitrate or polypropylene centrifuge tubes. Two concentrations of cells were used as indicated in the results. Heating was accomplished by three methods: microwave radiation, hot air, or water bath heating. The microwave device was a circularly polarized waveguide powered by a 1-kw S-band (microwave) amplifier (Model 10704,MCL, Inc., La Grange, Ill.). The heating of the sample at a specific absorption rate (SAR) of 91±4 W/kg (continuous wave (CW), 2450MHz) was offset by an air-cooling system that maintained a constant temperature. This system has been previously described in greater detail in Kiel, J. L. and D. N. Erwin, "Microwave and thermal interactions with oxidative hemolysis", 16 Physiol. Chem. Phys. Med. NMR, 317-323 (1984), which reference is hereby incorporated in its entirety by this specific reference thereto. […] The temperature was held within ±0.2° C. by this system. In the absence of microwave radiation, the temperature was held constant by hot air alone. The microwave/hot air system was brought to 37° C. for 15 min. prior to raising the temperature to 43° C. by microwaves or hot hot air. The water bath heating held the temperature within ±0.5° C. Heating times were 10, 15, or 30 min. The temperatures examined were 37°, 43°, 45°, or 48°.
Hemoglobin released into the supernatants of the heated cells were determined by the method described in the above-incorporated reference of Kiel and Erwin (1984). In brief, the supernatants were collected following centrifugation in a clinical centrifuge, diluted 1:2 in PBS, pH 7.4, and the optical absorbances at 410 nm were determined in a dual beam spectrophotometer. Pyruvate, lactate, inosine, hydrogen peroxide, mimosine, and/or 3-amino-L-tyrosine were added to the samples as indicated in Tables 1-3 and 9-12. All reagents were diluted in PBS and the final volumes of the samples were constant.

Nc1cc(C[C@H](N)C(=O)O)ccc1O [3-aminotyrosine, 3-amino-L-tyrosine]
Percent difference from controls (corrected), 4° C. (74 μM, 48° C. 30 min): -0.8% | Percent difference from controls (corrected), 48° C. (74 μM, 48° C. 30 min): -38.3% | 410 nm absorbance, Actual (74 μM, 48° C. 30 min, RBCs 20 days post collection, 1.4×10^9 per ml): 0.491 ± 0.032 | 410 nm absorbance, Corrected (74 μM, 48° C. 30 min, corrected for RBC dilution): 0.368 | effect on thermal hemolysis, in words (74 μM, 48° C. for 30 min): suppressed the thermal hemolysis to the level of the 4 °C control; also recorded: powerful inhibitor | effect on thermal hemolysis, in words (1.49 mM, 45° C.): did not significantly inhibit | hemolysis, optical density of supernatants (1:2 dilution) at 410 nm (3-amino-L-tyrosine and H2O2 at 37° C., 4° C. control 0.243±0.004): 0.261±0.007 | hemolytic value (preincubation with 3-amino-L-tyrosine alone (1.49 mM, 4° C., 72 hours)): 0.452±0.02 | spontaneous hemolysis reading (pyruvate and 3-amino-L-tyrosine, 37° C.): 0.326±0.03
